Measured values reported in US4187216A, “Dipeptide derivatives” (Hoffmann-La Roche Inc., priority 1976, dated 1980).
pIC50, pKi: −log10 of the molar value. Where a name gives a salt, the structure may show the parent alone. Residues, ends and D or L forms follow the SMILES beside them. *: point of attachment. pNA = O=[N+]([O-])c1ccc(N*)cc1; Tos = Cc1ccc(S(=O)(=O)*)cc1; Hexanoyl = CCCCCC(=O)*; Propionyl = CCC(=O)*; Tfa = O=C(C(F)(F)F)*; NHPh = c1ccc(N*)cc1

Target: T1, human granulocyte elastase (Homo sapiens, UniProt P08246)
T1 sequence (P08246 30-267): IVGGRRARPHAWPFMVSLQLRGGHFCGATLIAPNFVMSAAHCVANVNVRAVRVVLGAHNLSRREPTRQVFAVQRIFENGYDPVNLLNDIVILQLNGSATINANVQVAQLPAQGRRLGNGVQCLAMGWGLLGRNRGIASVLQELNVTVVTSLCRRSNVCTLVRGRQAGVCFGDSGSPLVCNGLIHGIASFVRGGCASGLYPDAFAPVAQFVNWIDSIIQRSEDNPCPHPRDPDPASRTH
Assay: in vitro elastase inhibition, test method of Visser and Blout, human granulocyte elastase as enzyme
Type: biochemical
Details: read-out: I50, concentration which gives 50% inhibition of the human granulocyte elastase
Text: Acta 268 (1972) 257, using human granulocyte elastase as the enzyme. The results obtained with representative dipeptide derivatives of formula I in this test are given in Table I hereinafter, the I50 being the concentration in millimoles per liter which gives 50% inhibition of the human granulocyte elastase: […]

Compound	pIC50
Cc1ccc(S(=O)(=O)N[C@@H](C)C(=O)N2CCC[C@H]2C(=O)Nc2ccccc2)cc1 [N-(p-Toluenesulphonyl)-L-alanyl-L-proline anilide] (Tos-Ala-Pro-NHPh)	4.22
CCCCCC(=O)N[C@@H](C)C(=O)N1CCC[C@H]1C(=O)Nc1ccccc1 [(N-Hexanoyl-L-alanyl-L-proline) anilide, N-Hexanoyl-L-alanyl-L-proline anilide] (Hexanoyl-Ala-Pro-NHPh)	3.10
C[C@H](NC(=O)CC12CC3CC(CC(C3)C1)C2)C(=O)N1CCC[C@H]1C(=O)Nc1ccccc1 [N-(1-Adamantylacetyl)-L-alanyl-L-proline anilide]	4.22
CCCCCNC(=O)[C@@H]1CCCN1C(=O)[C@H](C)NC(=O)OCc1ccccc1 [N-Benzyloxycarbonyl-L-alanyl-L-proline n-pentylamide]	~2.30
C[C@H](NC(=O)OCc1ccccc1)C(=O)N1CCC[C@H]1C(=O)NC1CCCCC1 [N-Benzyloxycarbonyl-L-alanyl-L-proline cyclohexylamide]	3.00
C[C@H](NS(=O)(=O)C12CC3CC(CC(C3)C1)C2)C(=O)N1CCC[C@H]1C(=O)Nc1ccccc1 [N-(1-Adamantylsulphonyl)-L-alanyl-L-proline anilide]	5.15
C[C@H](NC(=O)C12CC3CC(CC(C3)C1)C2)C(=O)N1CCC[C@H]1C(=O)Nc1ccccc1 [N-(1-Adamantylcarbonyl)-L-alanyl-L-proline anilide]	3.22

Target: porcine pancreatic elastase (Sus scrofa, UniProt P00772)
Sequence (P00772 27-266): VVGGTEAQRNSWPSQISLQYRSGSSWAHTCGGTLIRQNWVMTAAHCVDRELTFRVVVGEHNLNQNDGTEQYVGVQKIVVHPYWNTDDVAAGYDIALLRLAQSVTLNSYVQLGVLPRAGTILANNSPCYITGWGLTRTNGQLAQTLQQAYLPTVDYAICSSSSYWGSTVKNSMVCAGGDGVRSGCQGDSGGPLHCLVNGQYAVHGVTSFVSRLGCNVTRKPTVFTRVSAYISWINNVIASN
Assay: in vitro elastase inhibition, test method of Visser and Blout, porcine pancreatic elastase as enzyme
Type: biochemical
Details: read-out: Ki, inhibitor constant

Compound	pKi
C[C@H](NC(=O)C(F)(F)F)C(=O)N1CCC[C@H]1C(=O)Nc1ccccc1 [N-Trifluoroacetyl-L-alanyl-L-proline anilide] (Tfa-Ala-Pro-NHPh)	5.85
CCC(=O)N[C@@H](C)C(=O)N1CCC[C@H]1C(=O)Nc1ccccc1 [N-Propionyl-L-alanyl-L-proline anilide] (Propionyl-Ala-Pro-NHPh)	4.40
CCC(=O)N[C@@H](C)C(=O)N[C@@H](C)C(=O)Nc1ccccc1 [N-Propionyl-L-alanyl-L-alanine anilide] (Propionyl-Ala-Ala-NHPh)	4.40
CCC(=O)N[C@@H](C)C(=O)N1CCC[C@H]1C(=O)Nc1ccc([N+](=O)[O-])cc1 [N-Propionyl-L-alanyl-L-proline 4-nitroanilide] (Propionyl-Ala-Pro-pNA)	4.59
CCC(=O)N[C@@H](C)C(=O)N1CCC[C@H]1C(=O)NC1CCCCC1 [N-Propionyl-L-alanyl-L-proline cyclohexylamide]	4.70
